Laboratory results: ChEMBL document CHEMBL5512688 (J Med Chem, 2024)

Molecular target: T1, Cyclin-G-associated kinase (Homo sapiens) (UniProt O14976)
T1 sequence (whole entry): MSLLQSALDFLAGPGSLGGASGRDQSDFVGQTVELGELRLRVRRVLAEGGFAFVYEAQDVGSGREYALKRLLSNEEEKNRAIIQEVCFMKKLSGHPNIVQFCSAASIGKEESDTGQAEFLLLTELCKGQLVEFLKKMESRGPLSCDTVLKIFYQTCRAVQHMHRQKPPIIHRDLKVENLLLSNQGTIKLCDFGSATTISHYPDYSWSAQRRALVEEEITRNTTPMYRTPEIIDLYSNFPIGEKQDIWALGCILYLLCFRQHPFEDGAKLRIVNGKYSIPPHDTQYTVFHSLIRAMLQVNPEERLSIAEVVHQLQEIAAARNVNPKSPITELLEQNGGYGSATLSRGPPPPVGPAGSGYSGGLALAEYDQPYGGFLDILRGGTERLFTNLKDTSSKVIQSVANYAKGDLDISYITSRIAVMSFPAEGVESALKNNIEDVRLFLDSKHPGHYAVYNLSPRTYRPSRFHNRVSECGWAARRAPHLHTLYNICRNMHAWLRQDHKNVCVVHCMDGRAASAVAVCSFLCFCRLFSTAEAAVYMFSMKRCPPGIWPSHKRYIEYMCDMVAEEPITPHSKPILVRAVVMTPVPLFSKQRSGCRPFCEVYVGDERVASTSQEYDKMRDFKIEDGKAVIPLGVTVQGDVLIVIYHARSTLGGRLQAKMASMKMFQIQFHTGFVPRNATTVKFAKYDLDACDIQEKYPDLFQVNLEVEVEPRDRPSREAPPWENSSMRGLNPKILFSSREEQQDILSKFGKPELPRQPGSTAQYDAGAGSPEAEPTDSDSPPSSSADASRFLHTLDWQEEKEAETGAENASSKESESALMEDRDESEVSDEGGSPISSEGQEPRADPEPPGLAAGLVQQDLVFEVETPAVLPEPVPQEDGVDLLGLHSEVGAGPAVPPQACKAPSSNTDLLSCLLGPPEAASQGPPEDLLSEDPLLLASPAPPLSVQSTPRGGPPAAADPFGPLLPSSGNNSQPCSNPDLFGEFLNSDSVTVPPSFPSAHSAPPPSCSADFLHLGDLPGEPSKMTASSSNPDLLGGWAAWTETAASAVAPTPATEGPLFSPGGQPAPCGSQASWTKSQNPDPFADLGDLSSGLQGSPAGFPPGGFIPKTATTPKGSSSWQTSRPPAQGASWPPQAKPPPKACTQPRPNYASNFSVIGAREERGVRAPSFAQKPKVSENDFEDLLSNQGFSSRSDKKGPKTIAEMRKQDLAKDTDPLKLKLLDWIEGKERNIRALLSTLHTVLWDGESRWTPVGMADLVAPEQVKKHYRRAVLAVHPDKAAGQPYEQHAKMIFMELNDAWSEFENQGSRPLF
Experiment: Inhibition of GAK (unknown origin) at 1 uM relative to control

Structure (SMILES): C=CCn1c(=O)c2cnc(Nc3ccc(N4CCN(C)CC4)cc3)nc2n1-c1cccc(-c2cnccn2)n1
- inhibition: > 90%
